Experimental data taken from patent publication US11220524B2, “Selective inhibitors of protein arginine methyltransferase 5 (PRMT5)” (PRELUDE THERAPEUTICS, INCORPORATED, priority 2017, dated 2022).

How the values were obtained:
[1] = test system: Symmetric Di-Methyl Arginine (sDMA) in Granta-519 cells; assay: Western blot for symmetric di-methyl arginine (sDMA) marks in Granta cells, 3 days treatment; type: cell-based; settings: Homo sapiens, 72 h; Granta-519 cell line, 3 days
Description: Cell Treatment and Western Blotting for Detecting Symmetric Di-Methyl Arginine (sDMA) and Histone H3R8 Dimethyl Symmetric (H3R8me2s) Marks
Initial compounds screening in A549 cells: Compounds were dissolved in DMSO to make 10 mM stock and further diluted to 0.1, and 1 mM. A549 cells were maintained in PRMI 1640 (Corning Cellgro, Catalog #: 10-040-CV) medium supplemented with 10% v/v FBS (GE Healthcare, Catalog #: SH30910.03). One day before experiment, 1.25×10^5 cells were seeded in 6 well plate in 3 mL medium and incubated overnight. The next day, medium was changed and 3 uL of compound solution was added (1:1,000 dilution, 0.1 and 1 uM final concentration; DMSO concentration: 0.1%), and incubated for 3 days. Cells incubated with DMSO was used as a vehicle control. Cells were washed once with PBS, trypsinized in 150 uL 0.25% Trypsin (Corning, Catalog #: 25-053-CI), neutralized with 1 mL complete medium, transferred to microcentrifuge tubes and collected. Cell pellet was then resuspended in 15 uL PBS, lysed in 4% SDS, and homogenized by passing through homogenizer column (Omega Biotek, Catalog #: HCR003). Total protein concentrations were determined by BCA assay (ThermoFisher Scientific, Catalog #: 23225). Lysates were mixed with 5× Laemmli buffer and boiled for 5 min. Forty ug of total protein was separated on SDS-PAGE gels (Bio-Rad, catalog #: 4568083, 4568043), transferred to PVDF membrane, blocked with 5% dry milk (Bio-Rad, Catalog #: 1706404) in TBS with 0.1% v/v Tween 20 (TBST) for 1 hour at room temperature (RT), and incubated with primary antibodies (sDMA: Cell signaling, Catalog #: 13222, 1:3,000; H3R8me2s: Epigentek, Catalog #: A-3706-100, 1:2,000; β-Actin: Abcam, Catalog #: ab8227, 1:10,000) in 5% dry milk in TBST at 4° C. for overnight. The next day, membranes were washed with TBST, 5×5 min, and incubated withhP conjugated seconded antibody (GE Healthcare; Catalog #: NA934-1ML; 1:5,000) for 2 hours at RT, followed by 5×5 min washes with TBST, and incubation with ECL substrates (Bio-Rad, Catalog #: 1705061, 1705062). Chemiluminescent signal was captured with FluoChem HD2 imager (Proteinsimple) and analyzed by ImageJ.
Cells incubated with DMSO was used as a vehicle control. Cells were harvested and subjected to western blot analysis as described above. SmD3me2s and H3R8me2s bands were quantified by ImageJ. Signals were normalized to β-Actin and DMSO control. IC50 values were calculated using Graphpad Prism.

PRMT5/MEP50 complex = PRMT5/MEP50 complex (Homo sapiens (Human), UniProt O14744); assay: Biochemical assay: PRMT5/MEP50 methylation of histone H2A with 3H-SAM, filter plate scintillation; settings: histone H2A 5 μM, SAM 1 μM, enzyme 5 nM; read-out: PRMT5/MEP50 IC50
Chain of PRMT5/MEP50 complex (O14744 whole entry): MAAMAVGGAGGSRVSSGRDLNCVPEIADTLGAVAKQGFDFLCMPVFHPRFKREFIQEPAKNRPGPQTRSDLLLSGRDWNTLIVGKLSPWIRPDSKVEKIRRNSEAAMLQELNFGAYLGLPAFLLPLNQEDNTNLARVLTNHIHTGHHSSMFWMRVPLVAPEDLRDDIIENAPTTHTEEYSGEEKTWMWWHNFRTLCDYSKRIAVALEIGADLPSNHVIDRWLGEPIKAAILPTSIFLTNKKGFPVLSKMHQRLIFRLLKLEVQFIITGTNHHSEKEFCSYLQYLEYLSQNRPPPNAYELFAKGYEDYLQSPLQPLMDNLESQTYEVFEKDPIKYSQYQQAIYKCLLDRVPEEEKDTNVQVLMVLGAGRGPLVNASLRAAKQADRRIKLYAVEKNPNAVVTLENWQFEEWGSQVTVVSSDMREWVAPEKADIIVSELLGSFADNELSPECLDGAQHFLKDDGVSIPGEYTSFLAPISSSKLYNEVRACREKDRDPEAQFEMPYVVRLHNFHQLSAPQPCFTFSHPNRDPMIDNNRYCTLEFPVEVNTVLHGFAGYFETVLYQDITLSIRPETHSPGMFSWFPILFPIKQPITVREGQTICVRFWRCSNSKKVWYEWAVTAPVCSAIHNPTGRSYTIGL
Chain of PRMT5/MEP50 complex (Q9BQA1 whole entry partner): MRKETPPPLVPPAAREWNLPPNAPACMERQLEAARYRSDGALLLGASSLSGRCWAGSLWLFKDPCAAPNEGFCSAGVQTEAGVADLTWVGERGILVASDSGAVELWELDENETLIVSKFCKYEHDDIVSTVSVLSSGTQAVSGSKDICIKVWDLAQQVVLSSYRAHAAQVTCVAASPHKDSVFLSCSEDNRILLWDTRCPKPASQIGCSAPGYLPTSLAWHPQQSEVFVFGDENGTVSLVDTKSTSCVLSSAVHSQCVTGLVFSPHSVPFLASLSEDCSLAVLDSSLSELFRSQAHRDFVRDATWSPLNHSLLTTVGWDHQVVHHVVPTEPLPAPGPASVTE
In short: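 5 nM PRMT5/MEP50 preincubated with compound 15–20 min at room temperature, with 5 μM histone H2A as substrate; reaction started with 1 μM 3H-SAM and run 60 min at 30 °C. TCA-stopped, filter-captured methylation counted by scintillation; IC50 from 4-parameter Hill fit.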

Row | Compound | IC50 [1] | IC50 (PRMT5/MEP50 complex)
1 | O/N=c1\nc[nH]c2c1ccn2[C@@H]1O[C@H]([C@H](O)c2ccc(Cl)c(Cl)c2)[C@@H](O)[C@H]1O [compound 66, 7-((2R,3R,4S,5R)-5-((R)-(3,4-dichlorophenyl)(hydroxy)methyl)-3,4-dihydroxytetrahydrofuran-2-yl)-1,7-dihydro-4H-pyrrolo[2,3-d]pyrimidin-4-one oxime] | 1.8 nM | 0.4 nM
2 | O/N=c1\nc[nH]c2c1ccn2[C@@H]1O[C@H]([C@H](O)c2ccc(F)c(F)c2)[C@@H](O)[C@H]1O [compound 67, 7-((2R,3R,4S,5R)-5-((R)-(3,4-difluorophenyl)(hydroxy)methyl)-3,4-dihydroxytetrahydrofuran-2-yl)-1,7-dihydro-4H-pyrrolo[2,3-d]pyrimidin-4-one oxime] | 10 nM | 0.6 nM
3 | CO/N=c1/nc[nH]c2c1ccn2[C@@H]1O[C@H]([C@H](O)c2ccc(F)c(Cl)c2)[C@@H](O)[C@H]1O [compound 68, 7-((2R,3R,4S,5R)-5-((R)-(3-chloro-4-fluorophenyl)(hydroxy)methyl)-3,4-dihydroxytetrahydrofuran-2-yl)-1,7-dihydro-4H-pyrrolo[2,3-d]pyrimidin-4-one O-methyl oxime] | 90 nM | 35 nM
4 | Cc1n/c(=N\O)c2ccn([C@@H]3O[C@H]([C@H](O)c4ccc(Cl)cc4)[C@@H](O)[C@H]3O)c2[nH]1 [compound 71, 7-((2R,3R,4S,5R)-5-((R)-(4-chlorophenyl)(hydroxy)methyl)-3,4-dihydroxytetrahydrofuran-2-yl)-2-methyl-1,7-dihydro-4H-pyrrolo[2,3-d]pyrimidin-4-one oxime] | 260 nM | 13.9 nM
5 | O/N=c1/nc[nH]c2c1c(F)cn2[C@@H]1O[C@H]([C@H](O)c2ccc(Cl)cc2)[C@@H](O)[C@H]1O [compound 72, 7-((2R,3R,4S,5R)-5-((R)-(4-chlorophenyl)(hydroxy)methyl)-3,4-dihydroxytetrahydrofuran-2-yl)-5-fluoro-1,7-dihydro-4H-pyrrolo[2,3-d]pyrimidin-4-one oxime] | 41 nM | 2.8 nM
6 | N/N=c1/nc[nH]c2c1c(F)cn2[C@@H]1O[C@H]([C@H](O)c2ccc(Cl)cc2)[C@@H](O)[C@H]1O [compound 73, (2R,3S,4R,5R)-2-((R)-(4-chlorophenyl)(hydroxy)methyl)-5-(5-fluoro-4-hydrazineylidene-1,4-dihydro-7H-pyrrolo[2,3-d]pyrimidin-7-yl)tetrahydrofuran-3,4-diol] | 313 nM | 9.7 nM
7 | CO/N=c1/nc[nH]c2c1ccn2[C@@H]1O[C@H]([C@H](O)c2ccc(C(F)(F)F)c(F)c2)[C@@H](O)[C@H]1O [compound 78, 7-((2R,3R,4S,5R)-5-((R)-(3-fluoro-4-(trifluoromethyl)phenyl)(hydroxy)methyl)-3,4-dihydroxytetrahydrofuran-2-yl)-1,7-dihydro-4H-pyrrolo[2,3-d]pyrimidin-4-one O-methyl oxime] | 33 nM | 3.1 nM
8 | CO/N=c1/nc[nH]c2c1ccn2[C@@H]1O[C@H]([C@H](O)c2ccc(Cl)c(C)c2)[C@@H](O)[C@H]1O [compound 80, 7-((2R,3R,4S,5R)-5-((R)-(4-chloro-3-methylphenyl)(hydroxy)methyl)-3,4-dihydroxytetrahydrofuran-2-yl)-1,7-dihydro-4H-pyrrolo[2,3-d]pyrimidin-4-one O-methyl oxime] | 18 nM | 0.7 nM
9 | CN/N=c1\nc[nH]c2c1ccn2[C@@H]1O[C@H]([C@H](O)c2ccc(Cl)c(Cl)c2)[C@@H](O)[C@H]1O [compound 81, (2R,3S,4R,5R)-2-((R)-(3,4-dichlorophenyl)(hydroxy)methyl)-5-(4-(2-methylhydrazineylidene)-1,4-dihydro-7H-pyrrolo[2,3-d]pyrimidin-7-yl)tetrahydrofuran-3,4-diol] | 9 nM | 0.3 nM
